From EP0942911B1, “BENZOPYRANOPYRROLE AND BENZOPYRANOPYRIDINE ALPHA-1 ADRENERGIC COMPOUNDS” (Abbott Laboratories, priority 1996, dated 1998) come the findings set out here.

Holding throughout (assay): biochemical
In experiment [1] the target is T1, α-1A adrenoreceptor (rat submaxillary gland) (Rattus norvegicus, UniProt P43140).
T1 sequence (P43140 1-466): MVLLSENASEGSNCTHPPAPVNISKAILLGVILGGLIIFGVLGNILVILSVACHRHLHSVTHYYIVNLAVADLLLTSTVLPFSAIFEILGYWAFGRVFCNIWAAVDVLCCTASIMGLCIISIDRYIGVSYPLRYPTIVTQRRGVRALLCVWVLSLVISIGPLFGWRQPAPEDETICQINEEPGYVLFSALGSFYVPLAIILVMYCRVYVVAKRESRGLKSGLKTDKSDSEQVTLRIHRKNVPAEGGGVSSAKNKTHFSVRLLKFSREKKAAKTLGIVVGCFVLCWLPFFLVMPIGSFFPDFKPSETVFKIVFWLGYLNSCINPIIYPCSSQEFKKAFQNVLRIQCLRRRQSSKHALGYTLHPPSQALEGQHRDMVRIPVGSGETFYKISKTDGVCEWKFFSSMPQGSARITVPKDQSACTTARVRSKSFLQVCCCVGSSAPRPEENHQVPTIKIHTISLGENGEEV
The class given is binding. The gist of the method: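 Radioligand binding to α-1A sites in membrane homogenates of rat submaxillary gland, run after Greengrass and Bremner. Bound radioactivity counted by liquid scintillation.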

Another experiment concerns the target T2, α-1a adrenoreceptor (Bos taurus, UniProt P18130).
T2 sequence (P18130 1-466): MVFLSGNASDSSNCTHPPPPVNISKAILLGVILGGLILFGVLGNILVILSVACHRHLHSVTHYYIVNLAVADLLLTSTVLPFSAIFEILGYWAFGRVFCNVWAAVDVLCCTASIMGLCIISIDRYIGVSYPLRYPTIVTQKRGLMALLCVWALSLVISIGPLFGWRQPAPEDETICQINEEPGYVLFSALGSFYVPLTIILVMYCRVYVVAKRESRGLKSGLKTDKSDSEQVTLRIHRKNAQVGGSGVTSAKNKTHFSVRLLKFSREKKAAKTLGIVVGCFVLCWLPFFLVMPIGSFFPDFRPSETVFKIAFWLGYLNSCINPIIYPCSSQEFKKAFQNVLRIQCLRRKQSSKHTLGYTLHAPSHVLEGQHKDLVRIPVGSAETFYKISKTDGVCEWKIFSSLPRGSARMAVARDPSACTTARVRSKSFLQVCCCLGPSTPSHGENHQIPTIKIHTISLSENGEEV
The class given is binding, bovine. The gist of the method: (§1)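 Cloned α-1a, α-1b and α-1d adrenoreceptors stably expressed in mouse LTK fibroblasts; membranes prepared in 50 mM Tris-HCl, pH 7.4. Radioligand binding per Greengrass and Bremner method, scintillation counting. The α-1A subtype used rat submaxillary gland membranes.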

The target of the next experiment is T3, α-1b adrenoreceptor (Mesocricetus auratus, UniProt P18841).
T3 sequence (P18841 1-515): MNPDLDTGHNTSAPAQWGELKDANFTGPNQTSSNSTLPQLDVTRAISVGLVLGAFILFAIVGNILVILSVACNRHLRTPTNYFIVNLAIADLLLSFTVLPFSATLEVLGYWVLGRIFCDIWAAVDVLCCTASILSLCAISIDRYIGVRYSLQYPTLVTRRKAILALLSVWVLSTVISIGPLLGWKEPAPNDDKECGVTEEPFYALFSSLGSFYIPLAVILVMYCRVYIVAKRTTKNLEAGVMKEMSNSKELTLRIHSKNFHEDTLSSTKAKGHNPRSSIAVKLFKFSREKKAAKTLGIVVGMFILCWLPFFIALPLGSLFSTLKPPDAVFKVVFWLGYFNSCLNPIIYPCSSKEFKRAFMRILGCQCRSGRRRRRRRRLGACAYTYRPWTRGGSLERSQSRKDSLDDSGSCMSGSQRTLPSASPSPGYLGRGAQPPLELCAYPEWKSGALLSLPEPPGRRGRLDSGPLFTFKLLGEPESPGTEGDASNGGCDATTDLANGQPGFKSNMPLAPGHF
The class given is binding, hamster. The gist of the method: as §1

Setting [2] is: [3H]-prazosin radioligand, rat submaxillary gland membranes, read-out: Radioligand Binding (Ki, nM) 1A (Rat).
Setting [3] is: [3H]-prazosin radioligand, cloned receptor in LTK cell membranes, read-out: Radioligand Binding (Ki, nM) 1a (Bovine).
Setting [4] is: [3H]-prazosin radioligand, cloned receptor in LTK cell membranes, read-out: Radioligand Binding (Ki, nM) 1b (Hamster).
The mark [5] stands for this setting: read-out: Radioligand Binding (Ki, nM) 1A (Rat).
Where [6] appears, read: read-out: Radioligand Binding (Ki, nM) 1a (Bovine).
The mark [7] stands for this setting: read-out: Radioligand Binding (Ki, nM) 1b (Hamster).

Structures can show the parent of a compound that is named as a salt. Where two headings read alike, the source gives them in different places.

The Ki is a dissociation constant, usually derived from enzyme kinetics or from competition with a known ligand. On to “3-[4-((3aR,9bR)-cis-9-Methoxy-1,2,3,3a,4,9b-hexahydro-[1]-benzopyrano[3,4-c]pyrrol-2-yl]butyl]-7-methoxy-pyrido[3',2':4,5]thieno[3,2-d]pyrimidine-2,4(1H,3H)-dione hydrochloride [Example 33]”, for which the values for the Ki (in experiment [1] (setting [2]); at α-1a adrenoreceptor (setting [3]); at α-1b adrenoreceptor (setting [4])) were 0.811 nM, 0.082 nM and 10.5 nM, respectively.
As to `COc1ccc2c(c1)OC[C@H]1CN(CCn3c(=O)[nH]c4c(sc5ccccc54)c3=O)C[C@@H]21.Cl` (racemic) [Example 63, 3-[2-((±)-cis-7-Methoxy-1,2,3,3a,4,9b-hexahydro-[1]-benzopyrano[3,4-c]pyrrol-2-yl)ethyl]-[1]benzthieno[3,2-d]pyrimidine-2,4(1H,3H)-dione hydrochloride], the Ki in experiment [1] (setting [5]) was determined as 51.2 nM; on α-1a adrenoreceptor (setting [6]), 11.2 nM; at α-1b adrenoreceptor (setting [7]), 92.2 nM.
For `COc1ccc2c(c1)OC[C@H]1CN(CCCn3c(=O)[nH]c4c(sc5ccccc54)c3=O)C[C@@H]21.Cl` (racemic) [Example 64, 3-[3-((±)-cis-7-Methoxy-1,2,3,3a,4,9b-hexahydro-[1]-benzopyrano[3,4-c]pyrrol-2-yl)propyl]-[1]benzthieno[3,2-d]pyrimidine-2,4(1H,3H)-dione hydrochloride], the Ki in experiment [1] (setting [5]) is 4.2 nM; on α-1a adrenoreceptor (setting [6]), 1.63 nM; on α-1b adrenoreceptor (setting [7]) it was 9.3 nM.
As to `COc1cccc2c1[C@@H]1CN(CCn3c(=O)[nH]c4c(sc5ccccc54)c3=O)C[C@@H]1CO2.Cl` (racemic) [Example 65, 3-[2-((±)-cis-9-Methoxy-1,2,3,3a,4,9b-hexahydro-[1]-benzopyrano[3,4-c]pyrrol-2-yl)ethyl]-[1]benzthieno[3,2-d]pyrimidine-2,4(1H,3H)-dione hydrochloride], the Ki was found to be 15 nM in experiment [1] (setting [5]), 1.82 nM on α-1a adrenoreceptor (setting [6]) and 20.7 nM at α-1b adrenoreceptor (setting [7]).
Turning to `COc1cccc2c1[C@@H]1CN(CCCn3c(=O)[nH]c4c(sc5ccccc54)c3=O)C[C@@H]1CO2.Cl` (racemic) [Example 66, 3-[3-((±)-cis-9-Methoxy-1,2,3,3a,4,9b-hexahydro-[1]-benzopyrano[3,4-c]pyrrol-2-yl)propyl]-[1]benzthieno[3,2-d]pyrimidine-2,4(1H,3H)-dione hydrochloride], the Ki turned out to be 214 nM in experiment [1] (setting [5]), 24.8 nM on α-1a adrenoreceptor (setting [6]) and 533 nM on α-1b adrenoreceptor (setting [7]).
Consider `COc1cccc2c1OC[C@H]1CN(CCn3c(=O)[nH]c4c(sc5ccccc54)c3=O)C[C@@H]21.Cl` (racemic) [Example 67, 3-[2-((±)-cis-6-Methoxy-1,2,3,3a,4,9b-hexahydro-[1]-benzopyrano[3,4-c]pyrrol-2-yl)ethyl]-[1]benzthieno[3,2-d]pyrimidine-2,4(1H,3H)-dione hydrochloride], for which the values for the Ki (in experiment [1] (setting [5]); at α-1a adrenoreceptor (setting [6]); on α-1b adrenoreceptor (setting [7])) were 116 nM, 77.2 nM and 248 nM, respectively.
The matching figures for `COc1cccc2c1OC[C@H]1CN(CCCn3c(=O)[nH]c4c(sc5ccccc54)c3=O)C[C@@H]21.Cl` (racemic) [Example 68, 3-[3-((±)-cis-6-Methoxy-1,2,3,3a,4,9b-hexahydro-[1]-benzopyrano[3,4-c]pyrrol-2-yl)propyl]-[1]benzthieno[3,2-d]pyrimidine-2,4(1H,3H)-dione hydrochloride]: 40.6 nM, 7.82 nM and 23.6 nM.
Regarding `Cl.O=c1[nH]c2c(sc3ccccc32)c(=O)n1CCN1C[C@@H]2COc3ccccc3[C@@H]2C1` (racemic) [Example 69, 3-[2-((±)-cis-1,2,3,3a,4,9b-hexahydro-[1]-benzopyrano[3,4-c]pyrrol-2-yl)ethyl]-[1]benzthieno[3,2-d]pyrimidine-2,4(1H,3H)-dione hydrochloride], the Ki in experiment [1] (setting [5]) is 0.665 nM; at α-1a adrenoreceptor (setting [6]) it was 0.344 nM; on α-1b adrenoreceptor (setting [7]) it was 4.35 nM.
For `O=c1[nH]c2c(sc3cccnc32)c(=O)n1CCCCN1C[C@@H]2COc3ccccc3[C@@H]2C1` (racemic) [Example 70, 3-[4-((±)-cis-1,2,3,3a,4,9b-hexahydro-[1]-benzopyrano[3,4-c]pyrrol-2-yl)butyl]-pyrido[2',3':4,5]thieno[3,2-d]pyrimidine-2,4(1H,3H)-dione dihydrochloride], in that order: 0.17 nM, 0.082 nM and 0.724 nM.
The matching figures for `COc1cccc2c1[C@H]1CN(CCCCn3c(=O)[nH]c4c(sc5nccnc54)c3=O)C[C@@H]1CO2.Cl.Cl` (racemic) [Example 74, 3-[4-((±)-trans-9-Methoxy-1,2,3,3a,4,9b-hexahydro-[1]-benzopyrano[3,4-c]pyrrol-2-yl)butyl]-pyrazino[2',3':4,5]thieno[3,2-d]pyrimidine-2,4(1H,3H)-dione dihydrochloride]: 3.29 nM, 1.53 nM and 14.3 nM.
For the compound `COc1cc2[nH]c(=O)n(CCCCN3C[C@@H]4COc5ccccc5[C@@H]4C3)c(=O)c2cc1OC` (racemic) [Example 81, 3-[4-((±1-cis-1,2,3,3a,4,9b-hexahydro-[1]-benzopyrano[3,4-c]pyrrol-2-yl)butyl]-6,7-dimethoxy-quinazoline-2,4(1H,3H)-dione hydrochloride], the results for the Ki (in experiment [1] (setting [2]); at α-1a adrenoreceptor (setting [3]); on α-1b adrenoreceptor (setting [4])) were 0.045 nM, 0.052 nM and 0.192 nM, respectively.
`COc1cccc2c1[C@@H]1CCN(CCCCn3c(=O)[nH]c4c(sc5ncccc54)c3=O)C[C@H]1CO2` (racemic) [Example 85, 3-[4-((±)-trans-10-Methoxy-1,3,4,4a,5,10b-hexahydro-2H-[1]-benzopyrano[3,4-c]pyrido-3-yl)butyl]-pyrido[3',2':4,5]thieno[3,2-d]pyrimidine-2,4(1H,3H)-dione dihydrochloride]: the values for the Ki (in experiment [1] (setting [2]); on α-1a adrenoreceptor (setting [3]); at α-1b adrenoreceptor (setting [4])) were 0.419 nM, 0.336 nM and 1.89 nM, respectively.
For `COc1cnc2sc3c(=O)n(CCCCN4CC5COc6cccc(OC)c6[C@@H]5C4)c(=O)[nH]c3c2n1.Cl` (stereo in doubt) [Example 43, 3-[4-((3aS,9bR)-trans-9-Methoxy-1,2,3,3a,4,9b-hexahydro-[1]-benzopyrano[3,4-c]pyrrol-2-yl)butyl]-8-methoxy-pyrazino[2',3':4,5]thieno[3,2-d]pyrimidine-2,4(1H,3H)-dione hydrochloride], the Ki in experiment [1] (setting [2]) turned out to be 0.114 nM; at α-1a adrenoreceptor (setting [3]), 0.037 nM; on α-1b adrenoreceptor (setting [4]), 1.49 nM.
Consider `COc1cc2nc(N3CCN(C(=O)C4COc5ccccc5O4)CC3)nc(N)c2cc1OC` (stereo not drawn) [Doxazosin, doxazosin, reference compound], for which the Ki was determined as 0.423 nM in experiment [1], 0.912 nM at α-1a adrenoreceptor and 0.793 nM at α-1b adrenoreceptor.
Turning to `COc1cccc2c1[C@@H]1CN(CCCCn3c(=O)[nH]c4c(sc5cccnc54)c3=O)C[C@@H]1CO2` [Example 1, 3-[4-((3aR,9bR)-cis-9-Methoxy-1,2,3,3a,4,9b-hexahydro-[1]-benzopyrano[3,4-c]pyrrol-2-yl)butyl]-pyrido[2',3':4,5]thieno[3,2-d]pyrimidine-2,4(1H,3H)-dione hydrochloride], the Ki in experiment [1] (setting [2]) amounted to 0.045 nM; at α-1a adrenoreceptor (setting [3]) it was 0.024 nM; on α-1b adrenoreceptor (setting [4]) it was 1.14 nM.
